Data as given in patent US20230381170A1, “METHOD FOR TREATING ALS/FTD THROUGH DEGRADATION OF RNA REPEAT EXPANSION” (University of Florida Research Foundation, Incorporated, priority 2020, published 2023).

How the values were obtained:
[1] = test system: Poly(GP), Poly(GA), TDP-43 inclusions; assay: Immunohistochemistry of sagittal brain sections of +/+PWR500 mice; type: in vivo, mouse; conditions: cortex
Experimental: Therapeutic Efficacy in a c9ALS/FD mouse model. All animal studies were completed as approved by the Scripps Florida Institutional Animal Care and Use Committee. A total of 24 mice (12+/+PWR500 [7 Male and 5 Female] and 12 WT [6 Male and 6 Female]) mice, age- and gender-matched and ranging in age from 18-22 weeks old were used in therapeutic efficacy studies (Table 6). Mice were anesthetized by intraperitoneal (i.p.) injection of 10 mg/mL Ketamine:1 mg/mL Xylazine solution. Intracerebroventricular (ICV) stereotactic injections of 10 μL of 7 (33 nmol) were administered into the right ventricle using the following coordinates: 0.2 mm posterior and 1.0 mm lateral to the right from the bregma and 3 mm deep. Mice were treated with 7 or vehicle consisting of 1% DMSO in Saline. Three weeks post-treatment, mice were euthanized, and tissue was harvested for study.
Immunohistochemistry. Tissue was excised postmortem, and brain tissue was sliced at the midline. The right hemisphere was stored in 10% neutral buffered formalin for 48 h. Tissue processing, embedding and sectioning were carried out by the Scripps Florida's Histology Core. Formalin-fixed tissue was placed on a paraffin processor (Sakura Tissue-Tek VIPS), embedded in paraffin, sectioned a 4 μm, and mounted on plus slides. The slides were optimized with the appropriate primary antibody dilutions (see below) on the Leica BOND-MAX platform followed by the Leica Refine Detection Kit containing the secondary polymer, DAB chromagen and counterstain. After dehydration in graded alcohols and cleared in xylene, the slides were cover slipped with a permanent mounting medium, Cytoseal 60 (Thermo Scientific). Images were taken in the right hemisphere of the cortex due north of the hippocampus with 5 images were taken per slice. Average number of aggregates or inclusions per cell was assessed for each sample and reported. Statistical analysis was measured using an unpaired t-test with Welch's correction. Immunohistochemical staining and analyses were completed blinded.

Nup98 = Nup98 by structured illumination microscopy in patient-derived iPSNs; type: cell-based, human; conditions: 50 nM
Experimental: Nuclei Isolation and Super Resolution Structured Illumination Microscopy. iPSC-derived spinal neurons were generated according to the previously published diMNs protocol (37). On day 15 and 18 of differentiation, […] G4C2 repeat-targeting ASO was added to media as previously described (59). For compound treatment, 50 nM 7 was added to media on days 15, 18, 21, 24, 27, and 30 of differentiation. On day 32 of differentiation, nuclei isolation was performed using the Nuclei Pure Prep Nuclei Isolation Kit (Sigma Aldrich) as previously described (68). Isolated nuclei were spun onto collagen coated slides and immunostained following standard protocols as previously described (68). Primary antibodies: 1:250 rat anti-Nup98 (Abcam), 1:500 chicken anti-NeuN (Millipore); secondary antibodies: […] Alexa 488 (Invitrogen), goat anti-chicken Alexa 647 (Invitrogen). NeuN positive nuclei were imaged by super resolution structured illumination microscopy (SIM) using a Zeiss ELYRA S.1 as previously described (14). Next, 50 nuclei per iPSC line/treatment group were analyzed using the 3D suite plugin in FIJI. The average number of spots from the 50 nuclei for each cell line and treatment group was used for statistical analyses. […] Quantification is presented as violin plots to represent the full variability of all nuclei analyzed.

(G4C2)66-No ATG-GFP mRNA = assay: Polysome profiling in HEK293T cells; type: cell-based, human; conditions: 200 nM
Experimental: Polysome Profiling. Polysome profiling studies were completed similarly to previously described methods (12, 30) Yang et al., 2015). Briefly, 100 mm dishes were plated with ˜3.5×10^6 HEK293T cells and batch-transfected for 5 h with 2.5 μg (G4C2)66-No ATG-GFP using Lipofectamine 3000 reagent according to manufacturer protocol. Then, cells were collected and plated overnight in 100 mm dishes with ˜2.5×10^6 HEK293T cells and treated with vehicle (DMSO, 0.5% final concentration) or 3 (200 nM). Upon 24 h treatment, cells were treated with cycloheximide (CHX, 0.1 mg/mL) and incubated for 5 min at 37° C. The medium was removed, and cells were washed by 2×7.5 mL ice cold DPBS supplemented with 0.1 mg/mL CHX. Cells were then lysed with 250 μL of ice-cold Cell Lysis Buffer [10 mM NaCl, 10 mM MgCl2, 10 mM Tris, pH 7.5, 1% Triton X-100, 1% sodium deoxycholate, 1 mM DTT supplemented with […] cycloheximide, and 0.2 U/μL RNAsin (Promega)]. The lysate obtained from 3×100 mm dishes were combined (˜500 μL final volume) and transferred to an Eppendorf tube, passed through a 21G needle several times and centrifuged for 5 min at 13,200 rpm and 4° C. The supernatant was transferred to a new tube and stored at −80° C. until further use. Cell lysates were then loaded on 10-50% sucrose gradients (prepared in 20 mM HEPES, pH 7.4, 100 mM KCl, 5 mM MgCl2, 3 mM DTT, and 0.1 mg/mL CHX) and separated at 40000 rpm for 2 h at 4° C. […] The levels of (G4C2)66-No ATG-GFP mRNA in each fraction were measured by qPCR as described above with primers specific for GFP (non-canonical translation), GAPDH, respectively (canonical translation) (Table 1). Data from vehicle- and compound-treated samples were normalized as follows: triplicate Ct values were averaged and ΔCt values were calculated; ΔΔCt values were afforded by comparing treated to untreated ΔCt values. […]

Compound	Poly(GA) aggregates ([1]; compared to vehicle)	Poly(GP) aggregates ([1]; compared to vehicle)	TDP-43 inclusions ([1]; relative to vehicle)	Nup98 abundance (Nup98)	increase of transcript abundance in low-molecular-weight (LMW) fractions ((G4C2)66-No ATG-GFP mRNA) [%]	polysome loading of GAPDH (control transcript) ((G4C2)66-No ATG-GFP mRNA)	reduction of transcript loaded into high-molecular-weight (HMW) polysome fractions ((G4C2)66-No ATG-GFP mRNA) [%]
CCOC(=O)C1=C(Nc2ccccc2)S/C(=C\c2ccc(OCCOCCOCCOCCNC(=O)CCC(=O)N(CCOCCOCCOc3ccc4[nH]c5c(C)c6ccncc6c(C)c5c4c3)CCOCCOCCOc3ccc4[nH]c5c(C)c6ccncc6c(C)c5c4c3)c(O)c2)C1=O [Compound 7]	significant decrease	significant decrease	decreased	reversed the loss of Nup98	–	–	–
Cc1c2ccncc2c(C)c2c1[nH]c1ccc(OCCOCCOCCNCCOCCOCCOc3ccc4[nH]c5c(C)c6ccncc6c(C)c5c4c3)cc12 [Compound 3]	–	–	–	–	17±1	no effect	22±2
